Test results as given in article PMC10221159, “Investigation of N-Acetyltransferase 2-Mediated Drug Interactions of Amifampridine: In Vitro and In Vivo Evidence of Drug Interactions with Acetaminophen” (Pharmaceutics, 2023).
Read-outs that look alike come from different tables or passages of the source.

Assay: Urinary excretion of amifampridine and 3-N-acetylamifampridine in rats
Assay type: in vivo, rat
Conditions: Sprague Dawley, rat, urine, oral, 2 mg/kg, 24 h, oral amifampridine 2 mg/kg, read-out: total urinary recovery
Method: Urine samples were collected at intervals of 0–4, 4–8, and 8–24 h after the administration of amifampridine to control and acetaminophen-treated rats (n = 6), as described above, and were diluted 500-fold with potassium phosphate buffer. An amount of 200 μL of IS was then added to the samples and vortexed for a minute. After centrifugation at 14,000 rpm for 15 min at 4 °C, the supernatant was transferred into vials for quantification of amifampridine and 3-N-acetylamifampridine.

SMILES: Nc1ccncc1N [amifampridine]
- dose excreted (acetaminophen-treated rats): 18.9%
- dose excreted (control rats): 6.7%
